Assay results from the NIST ThermoML archive (doi:10.1021/je101130e).
± gives the expanded uncertainty stated by the source.

Key:
[1] = cn = amount concentration of the nth substance listed, in mol/dm3; details: 101 kPa, Liquid, Alternating current cell with electrodes
[2] = mn = molality of the nth substance listed, in mol/kg; details: 298.15 K, 101 kPa, Liquid, Vibrating tube method

CCOS(=O)(=O)[O-].CCn1cc[n+](C)c1 [1-ethyl-3-methylimidazolium ethyl sulfate] + ClCCl
molar conductivity [S·m2/mol], [1]
Details	273.15 K	278.15 K	283.15 K	288.15 K	293.15 K	298.15 K	303.15 K	308.15 K
c1 = 0.5399	0.0004064 ± 4e-07	0.0004194 ± 4e-07	0.0004324 ± 4e-07	0.0004454 ± 4e-07	0.0004554 ± 5e-07	0.000462 ± 5e-07	0.000471 ± 5e-07	0.0004771 ± 5e-07
c1 = 0.8656	0.0003364 ± 3e-07	0.0003471 ± 4e-07	0.0003579 ± 4e-07	0.0003684 ± 4e-07	0.0003768 ± 4e-07	0.0003829 ± 4e-07	0.0003904 ± 4e-07	0.0003958 ± 4e-07
c1 = 1.152	0.0003033 ± 3e-07	0.0003131 ± 3e-07	0.0003228 ± 3e-07	0.0003322 ± 3e-07	0.0003398 ± 3e-07	0.0003455 ± 3e-07	0.0003521 ± 4e-07	0.0003571 ± 4e-07
c1 = 1.504	0.0002764 ± 3e-07	0.0002855 ± 3e-07	0.0002943 ± 3e-07	0.0003028 ± 3e-07	0.0003098 ± 3e-07	0.0003152 ± 3e-07	0.0003212 ± 3e-07	0.0003258 ± 3e-07
c1 = 1.808	0.0002603 ± 3e-07	0.0002689 ± 3e-07	0.0002772 ± 3e-07	0.0002852 ± 3e-07	0.0002918 ± 3e-07	0.0002971 ± 3e-07	0.0003029 ± 3e-07	0.0003073 ± 3e-07
c1 = 2.099	0.0002493 ± 3e-07	0.0002575 ± 3e-07	0.0002653 ± 3e-07	0.000273 ± 3e-07	0.0002794 ± 3e-07	0.0002845 ± 3e-07	0.00029 ± 3e-07	0.0002942 ± 3e-07
c1 = 2.376	0.0002409 ± 2e-07	0.0002489 ± 3e-07	0.0002566 ± 3e-07	0.000264 ± 3e-07	0.0002702 ± 3e-07	0.0002753 ± 3e-07	0.0002806 ± 3e-07	0.0002849 ± 3e-07
c1 = 2.723	0.0002334 ± 2e-07	0.0002412 ± 2e-07	0.0002486 ± 3e-07	0.0002557 ± 3e-07	0.0002618 ± 3e-07	0.0002668 ± 3e-07	0.000272 ± 3e-07	0.0002762 ± 3e-07
c1 = 3.074	0.0002276 ± 2e-07	0.0002352 ± 2e-07	0.0002425 ± 2e-07	0.0002494 ± 3e-07	0.0002554 ± 3e-07	0.0002604 ± 3e-07	0.0002655 ± 3e-07	0.0002698 ± 3e-07
c1 = 3.333	0.000224 ± 2e-07	0.0002315 ± 2e-07	0.0002387 ± 2e-07	0.0002455 ± 3e-07	0.0002514 ± 3e-07	0.0002564 ± 3e-07	0.0002615 ± 3e-07	0.0002657 ± 3e-07
c1 = 3.607	0.0002213 ± 2e-07	0.0002288 ± 2e-07	0.0002359 ± 2e-07	0.0002427 ± 2e-07	0.0002488 ± 3e-07	0.0002538 ± 3e-07	0.0002588 ± 3e-07	0.000263 ± 3e-07
c1 = 3.931	0.000219 ± 2e-07	0.0002264 ± 2e-07	0.0002334 ± 2e-07	0.0002401 ± 2e-07	0.0002459 ± 3e-07	0.000251 ± 3e-07	0.000256 ± 3e-07	0.0002601 ± 3e-07

CCOS(=O)(=O)[O-].CCn1cc[n+](C)c1 [1-ethyl-3-methylimidazolium ethyl sulfate] + O
[2]
Details	mass density [kg/m3]
m1 = 0.005086	997.281 ± 10
m1 = 0.06934	1000.11 ± 10

molar conductivity [S·m2/mol], [1]
Details	c1 = 0.6368	c1 = 1.07	c1 = 1.527	c1 = 1.991	c1 = 2.48	c1 = 3.114	c1 = 3.767	c1 = 4.385	c1 = 5.086
278.15 K	0.00496 ± 5e-06	0.0049391 ± 4.9e-06	0.0049163 ± 4.9e-06	0.004892 ± 4.9e-06	0.004877 ± 4.9e-06	0.0048486 ± 4.8e-06	0.0048261 ± 4.8e-06	0.00479 ± 4.8e-06	0.004783 ± 4.8e-06
283.15 K	0.0057155 ± 5.7e-06	0.00569 ± 5.7e-06	0.005664 ± 5.7e-06	0.0056374 ± 5.6e-06	0.0056159 ± 5.6e-06	0.005585 ± 5.6e-06	0.005559 ± 5.6e-06	0.0055336 ± 5.5e-06	0.0055088 ± 5.5e-06
288.15 K	0.0065118 ± 6.5e-06	0.00648 ± 6.5e-06	0.0064496 ± 6.4e-06	0.0064206 ± 6.4e-06	0.006395 ± 6.4e-06	0.00636 ± 6.4e-06	0.0063311 ± 6.3e-06	0.0063021 ± 6.3e-06	0.006274 ± 6.3e-06
293.15 K	0.0073408 ± 7.3e-06	0.0073039 ± 7.3e-06	0.007271 ± 7.3e-06	0.0072366 ± 7.2e-06	0.0072073 ± 7.2e-06	0.007169 ± 7.2e-06	0.007135 ± 7.1e-06	0.0071023 ± 7.1e-06	0.007071 ± 7.1e-06
298.15 K	0.0082055 ± 8.2e-06	0.008163 ± 8.2e-06	0.008125 ± 8.1e-06	0.008088 ± 8.1e-06	0.008054 ± 8.1e-06	0.0080112 ± 8e-06	0.007974 ± 8e-06	0.0079372 ± 7.9e-06	0.0079028 ± 7.9e-06
303.15 K	0.009098 ± 9.1e-06	0.009052 ± 9.1e-06	0.0090088 ± 9e-06	0.008967 ± 9e-06	0.00893 ± 8.9e-06	0.008882 ± 8.9e-06	0.0088395 ± 8.8e-06	0.008799 ± 8.8e-06	0.008761 ± 8.8e-06
308.15 K	0.010022 ± 1e-05	0.00997 ± 1e-05	0.0099213 ± 9.9e-06	0.009875 ± 9.9e-06	0.0098348 ± 9.8e-06	0.009782 ± 9.8e-06	0.0097357 ± 9.7e-06	0.009689 ± 9.7e-06	0.0096453 ± 9.6e-06
313.15 K	0.01096 ± 1.1e-05	0.01092 ± 1.1e-05	0.01086 ± 1.1e-05	0.01081 ± 1.1e-05	0.01076 ± 1.1e-05	0.01071 ± 1.1e-05	0.01066 ± 1.1e-05	0.01061 ± 1.1e-05	0.01056 ± 1.1e-05
